Results taken from patent publication US20240400549A1, “COMPOUNDS AND THEIR USES FOR TREATING NEURODEGENERATIVE DISEASE” (Academia Sinica, priority 2021, published 2024).

How the values were obtained:
[1] = target: T1, eGFP-C-TDP-43 oligomeric intermediates (Homo sapiens, UniProt Q13148); experiment: Size-exclusion chromatography and slot blot with oligomer-specific antibody A11; format: cell-based, mouse; settings: lysate of Neuro-2a cells overexpressing eGFP-C-TDP-43, 48 h
T1 construct: expressed in transfected cells; host or cells: Neuro-2a (mouse neuroblastoma)
T1 sequence (Q13148 208-414 limits assumed): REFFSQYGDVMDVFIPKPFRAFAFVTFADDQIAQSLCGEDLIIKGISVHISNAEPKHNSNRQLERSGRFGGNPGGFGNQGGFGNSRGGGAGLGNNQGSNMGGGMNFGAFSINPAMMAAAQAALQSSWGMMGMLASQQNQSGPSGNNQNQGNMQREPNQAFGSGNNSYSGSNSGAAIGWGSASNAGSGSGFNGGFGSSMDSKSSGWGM

[2] = target: T2, endogenous TDP-43 protein (FL-TDP-43) (Mus musculus, UniProt Q921F2); experiment: Level of endogenous TDP-43 protein (FL-TDP-43) in Neuro-2a cells; format: cell-based; settings: mock control 0.91±0.07
T2 construct: the level of endogenous TDP-43 protein (FL-TDP-43); endogenous in cells; host or cells: Neuro-2a (mouse neuroblastoma), also transfected with eGFP-C-TDP-43
T2 sequence (Q921F2 whole entry): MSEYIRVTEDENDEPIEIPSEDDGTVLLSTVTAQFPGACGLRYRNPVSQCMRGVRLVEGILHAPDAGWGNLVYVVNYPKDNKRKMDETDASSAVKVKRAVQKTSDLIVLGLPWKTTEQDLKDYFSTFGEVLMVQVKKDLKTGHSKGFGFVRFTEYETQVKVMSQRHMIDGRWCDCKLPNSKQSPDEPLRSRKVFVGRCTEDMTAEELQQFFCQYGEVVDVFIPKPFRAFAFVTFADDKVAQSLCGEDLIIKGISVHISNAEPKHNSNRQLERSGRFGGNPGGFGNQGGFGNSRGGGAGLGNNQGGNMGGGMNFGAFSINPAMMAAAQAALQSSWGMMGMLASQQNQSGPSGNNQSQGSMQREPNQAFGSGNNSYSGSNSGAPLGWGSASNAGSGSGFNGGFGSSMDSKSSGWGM
Protocol: Mouse neuroblastoma cell line (Neuro-2a) were cultured in Dulbecco's modified Eagle's medium (DMEM; Gibco) containing 2×10^−3 M glutamine, 10% heat inactivated fetal bovine serum (FBS), and 100 U mL^−1 penicillin-streptomycin (Gibco) at 37° C. in a humidified incubator containing 5% CO2. Alternatively, Neuro-2a cells were cultured in Dulbecco's modified Eagle's medium (DMEM; Invitrogen, Carlsbad, CA, USA) supplemented with 10% heat-inactivated FBS. The cells were incubated in a humidified incubator at 37° C. with 10% CO2. Transfection was performed using T-Pro NTR II (Ji-Feng Biotechnology, Taiwan) following the manufacturer's protocol.
Neuro-2a cells were seeded in a 6-well plate at a concentration of 2×10^5 cells/well and incubated overnight. Once the cells were attached, Neuro-2a cells were transfected with the eGFP-C-TDP-43 plasmid (2.2 μg) using Turbofect transfection reagent (Invitrogen) and treated with or without 5 μM test compound after 2 h transfection. After incubation for another 22 h, the transfected cells were harvested by RIPA buffer containing protease inhibitor (Roche) and sonicated on ice for 10 seconds. […] Aggregated eGFP-C-TDP-43 protein trapped by the CA membranes was determined by immunoblotting. […]
Proteins were separated using 12% Tris-glycine SDS-PAGE. […] The signals were visualized with luminescence (iBright™ FL1000 instrument, Invitrogen). […]

A11 signal intensity in SEC fractions 9-11 (oligomeric intermediates) [1]: significantly reduced
level of endogenous TDP-43 protein (FL-TDP-43) [2]: 1.11±0.14
Structure (SMILES): CN(C)c1ccc(-c2nc3ccc(OCCOCCOCCNc4cccc5c4C(=O)N(C4CCC(=O)NC4=O)C5=O)cc3s2)cc1 (centres unmarked) [I-1b, 4-((2-(2-(2-((2-(4-(dimethylamino)phenyl)benzo[d]thiazol-6-yl)oxy)ethoxy)ethoxy)ethyl)amino)-2-(2,6-dioxopiperidin-3-yl)isoindoline-1,3-dione]
